In patent US9469615B2, “Quinoxalines and AZA-quinoxalines as CRTH2 receptor modulators” (Merck Sharp & Dohme Corp., priority 2010, dated 2016):
pKi: −log10 of the molar value.

The compounds below were run against T1, hCRTH2 (Homo sapiens, UniProt Q9Y5Y4) (assay: Radioligand binding assay ([3H]PGD2 competition, HEK-hCRTH2 membranes)). Details: [3H]PGD2 binding, values in text.
T1 construct: expressed in transfected cells; host or cells: HEK (human embryonic kidney) cells expressing hCRTH2; membrane preparation
T1 sequence (Q9Y5Y4 1-395): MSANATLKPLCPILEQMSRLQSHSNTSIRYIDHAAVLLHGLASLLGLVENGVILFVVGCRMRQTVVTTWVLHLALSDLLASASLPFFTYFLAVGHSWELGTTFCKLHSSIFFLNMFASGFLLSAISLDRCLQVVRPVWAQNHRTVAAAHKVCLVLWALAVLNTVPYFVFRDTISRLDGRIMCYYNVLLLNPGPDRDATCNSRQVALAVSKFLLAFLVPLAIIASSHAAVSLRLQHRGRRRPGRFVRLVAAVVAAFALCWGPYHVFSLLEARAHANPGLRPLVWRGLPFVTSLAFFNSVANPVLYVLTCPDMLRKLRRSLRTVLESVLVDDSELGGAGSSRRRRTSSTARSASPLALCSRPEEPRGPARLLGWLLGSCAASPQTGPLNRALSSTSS
In short: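 Competition against 3.0 nM [3H]PGD2 was run for 60 min at room temperature in pH 7.4 Tris-HCl buffer with EDTA, 2 mM MnCl2 and 1% DMSO, using 8-20 μg HEK-hCRTH2 membrane protein. 10 μM PGD2 set non-specific binding; filter-bound counts were read by scintillation.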

pKi | SMILES
8.89 | O=C(O)CCCCc1nc2cc(C(=O)N[C@H]3CCOc4ccccc43)ccc2nc1-c1ccc(Cl)cc1 [compound 507, (S)-5-(3-(4-chlorophenyl)-7-(chroman-4-ylcarbamoyl)quinoxalin-2-yl)pentanoic acid]

Same assay, conditions: [3H]PGD2 competition, Table B

pKi | SMILES
6.70 to 7.70 | O=C(O)CCCCc1nc2cc(C(=O)NC3CCCc4cc(C(F)(F)F)cnc43)ccc2nc1-c1ccccc1 (centres unmarked) [compound 502, 5-(3-phenyl-7-((3-(trifluoromethyl)-5,6,7,8-tetrahydroquinolin-8-yl)carbamoyl)quinoxalin-2-yl)pentanoic acid]
6.70 to 7.70 | O=C(O)CCCCc1nc2cc(C(=O)N[C@@H]3CCCc4ncccc43)ccc2nc1-c1ccccc1 [compound 503, (R)-5-(3-phenyl-7-((5,6,7,8-tetrahydroquinolin-5-yl)carbamoyl)quinoxalin-2-yl)pentanoic acid]
7.70 to 8.68 | O=C(O)CCCCc1nc2cc(C(=O)N[C@H]3CCCc4ncccc43)ccc2nc1-c1ccccc1 [compound 504, (S)-5-(3-phenyl-7-((5,6,7,8-tetrahydroquinolin-5-yl)carbamoyl)quinoxalin-2-yl)pentanoic acid]
7.70 to 8.68 | O=C(O)CCCCc1nc2cc(C(=O)NC3CCCc4cnccc43)ccc2nc1-c1ccccc1 (centres unmarked) [compound 505, 5-(3-phenyl-7-((5,6,7,8-tetrahydroisoquinolin-5-yl)carbamoyl)quinoxalin-2-yl)pentanoic acid]
8.70 to 10.00 | O=C(O)CCCCc1nc2cc(C(=O)N[C@@H]3CCOc4ccccc43)ccc2nc1-c1ccc(Cl)cc1 [compound 506]

More lines, now with the values behind:

SMILES | pKi
C[C@H]1CN(c2ccc(F)cc2)CCN1C(=O)c1ccc2nc(-c3ccc(F)cc3)c(CCCCC(=O)O)nc2c1 [compound 497, (S)-5-(3-(4-fluoro-phenyl)-7-(4-(4-fluorophenyl)-2-methylpiperazine-1-carbonyl)quinoxalin-2-yl)pentanoic acid] | 7.70 to 8.68
C[C@@H]1CN(c2ccccc2)CCN1C(=O)c1ccc2nc(-c3ccc(Cl)cc3)c(CCCCC(=O)O)nc2c1 [compound 498, (R)-5-(3-(4-chlorophenyl)-7-(2-methyl-4-phenyl-piperazine-1-carbonyl)quinoxalin-2-yl)pentanoic acid] | 7.70 to 8.68
C[C@@H]1CN(c2ccccc2)CCN1C(=O)c1ccc2nc(-c3ccc(F)cc3)c(CCCCC(=O)O)nc2c1 [compound 499, (R)-5-(3-(4-fluorophenyl)-7-(2-methyl-4-phenyl-piperazine-1-carbonyl)quinoxalin-2-yl)pentanoic acid] | 7.70 to 8.68
O=C(N[C@@H]1CCCc2ccccc21)c1ccc2nc(-c3ccc(F)cc3)c(CC[C@@H]3C[C@H]3C(=O)O)nc2c1 [compound 500, (1R,2R)-2-(2-(3-(4-fluorophenyl)-7-(((R)-1,2,3,4-tetrahydronaphthalen-1-yl)carbamoyl)quinoxalin-2-yl)ethyl)cyclopropane-carboxylic acid] | 7.70 to 8.68
O=C(N[C@@H]1CCCc2ccccc21)c1ccc2nc(-c3ccc(F)cc3)c(CCC3CC3C(=O)O)nc2c1 (stereo partly drawn) [compound 501, 2-(2-(3-(4-fluorophenyl)-7-(((R)-1,2,3,4-tetrahydronaphthalen-1-yl)carbamoyl)quinoxalin-2-yl)ethyl)cyclopropane-carboxylic acid] | 6.70 to 7.70
O=C(O)CCCCc1nc2cc(C(=O)N[C@H]3CCOc4ccccc43)ccc2nc1-c1ccc(Cl)cc1 [compound 507, (S)-5-(3-(4-chlorophenyl)-7-(chroman-4-ylcarbamoyl)quinoxalin-2-yl)pentanoic acid] | 8.70 to 10.00
O=C(O)CCCCc1nc2cc(C(=O)N[C@H]3c4ccccc4C[C@H]3O)ccc2nc1-c1ccc(F)cc1 [compound 508, 5-(3-(4-fluorophenyl)-7-(((1S,2R)-2-hydroxy-2,3-dihydro-1H-inden-1-yl)carbamoyl)quinoxalin-2-yl)pentanoic acid] | 7.70 to 8.68
O=C(O)CCCCc1nc2cc(C(=O)N[C@@H]3c4ccccc4C[C@@H]3O)ccc2nc1-c1ccc(F)cc1 [compound 509, 5-(3-(4-fluorophenyl)-7-(((1R,2S)-2-hydroxy-2,3-dihydro-1H-inden-1-yl)carbamoyl)quinoxalin-2-yl)pentanoic acid] | 6.70 to 7.70
